Consider 3 molecules from patent publication US10231954B2, “Neurodegenerative therapies” (LYTIX BIOPHARMA AS, priority 2014, dated 2019).

Where two headings read alike, the source gives them in different places.

Holding throughout (type): biochemical
The target of one assay is DYRK1A (Homo sapiens, UniProt Q13627). Description: DYRK 1A assay (kinase profiling). The following applies: read-out: residual kinase activity, DYRK1A. The protocol:
Assays are stopped by addition of 5 μl of 0.5 M (3%) orthophosphoric acid and then harvested onto P81 Unifilter plates with a wash buffer of 50 mM orthophosphoric acid.
(§1) Any value less that 25 is considered to be highly significant inhibition.

The target of a further assay is T1, PDK1 (Homo sapiens, UniProt O15530).
T1 sequence (O15530 1-556): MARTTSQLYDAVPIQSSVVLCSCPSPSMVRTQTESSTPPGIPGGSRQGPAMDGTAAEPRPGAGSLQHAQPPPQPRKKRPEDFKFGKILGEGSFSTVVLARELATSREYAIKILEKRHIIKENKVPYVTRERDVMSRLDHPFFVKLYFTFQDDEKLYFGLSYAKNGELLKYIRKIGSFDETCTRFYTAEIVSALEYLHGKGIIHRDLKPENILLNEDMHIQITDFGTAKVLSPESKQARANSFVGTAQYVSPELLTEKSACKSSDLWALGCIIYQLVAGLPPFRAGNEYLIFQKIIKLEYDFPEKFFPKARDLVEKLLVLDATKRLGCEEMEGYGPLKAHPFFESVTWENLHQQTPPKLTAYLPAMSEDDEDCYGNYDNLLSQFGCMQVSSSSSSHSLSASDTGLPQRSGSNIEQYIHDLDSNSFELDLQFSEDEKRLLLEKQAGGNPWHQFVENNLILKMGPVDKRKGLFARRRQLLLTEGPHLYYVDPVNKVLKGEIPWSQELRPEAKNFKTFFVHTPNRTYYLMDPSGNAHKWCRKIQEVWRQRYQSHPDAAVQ
Description: Kinase profiling PDK1. The following applies: read-out: residual kinase activity, PDK1.
Excerpt: as §1

The target in a further assay is SYK (Homo sapiens, UniProt P43405). Description: Kinase profiling SYK. The following applies: read-out: residual kinase activity, SYK.
Excerpt: as §1

A further assay has as its target PAK4 (Homo sapiens, UniProt O96013). Description: Kinase profiling PAK4. The settings on record: read-out: residual kinase activity, PAK4.
Excerpt: as §1

The next assay addresses PLK1 (Homo sapiens, UniProt P53350). Briefly: Kinase profiling PLK1. The following applies: read-out: residual kinase activity, PLK1.
Excerpt: as §1

The target of another assay is JAK2 (Homo sapiens, UniProt O60674). Description: Kinase profiling JAK2. The following applies: read-out: residual kinase activity, JAK2.
Excerpt: as §1

In a further assay the target is RSK2 (Homo sapiens, UniProt P51812). Briefly: Kinase profiling RSK2. The following applies: read-out: residual kinase activity, RSK2.
Excerpt: as §1

Another assay addresses MARK3 (Homo sapiens, UniProt P27448). Description: Kinase profiling MARK3. The settings on record: read-out: residual kinase activity, MARK3.
Excerpt: as §1

The target in a further assay is CHK2 (Homo sapiens, UniProt O96017). Description: Kinase profiling CHK2. The following applies: read-out: residual kinase activity, CHK2.
Sequence of CHK2 (O96017 whole entry, species assumed): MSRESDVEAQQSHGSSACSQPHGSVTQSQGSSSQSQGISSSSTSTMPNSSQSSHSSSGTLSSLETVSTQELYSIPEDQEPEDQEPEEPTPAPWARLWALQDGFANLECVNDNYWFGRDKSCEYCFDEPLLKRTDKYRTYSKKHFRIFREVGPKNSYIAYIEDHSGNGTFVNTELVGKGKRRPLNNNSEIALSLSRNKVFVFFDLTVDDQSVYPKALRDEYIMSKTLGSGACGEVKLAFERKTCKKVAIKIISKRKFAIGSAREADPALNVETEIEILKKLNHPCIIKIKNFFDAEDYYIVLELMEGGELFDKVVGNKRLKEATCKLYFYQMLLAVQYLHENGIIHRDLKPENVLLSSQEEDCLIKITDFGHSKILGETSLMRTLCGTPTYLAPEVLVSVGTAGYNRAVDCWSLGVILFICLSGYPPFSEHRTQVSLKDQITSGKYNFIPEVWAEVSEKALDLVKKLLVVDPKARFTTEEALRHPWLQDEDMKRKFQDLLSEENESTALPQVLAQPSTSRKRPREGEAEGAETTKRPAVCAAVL
Excerpt: as §1

The target of another assay is CAMKKb (Homo sapiens, UniProt Q96RR4). Briefly: Kinase profiling CAMKKb. The settings on record: read-out: residual kinase activity, CAMKKb.
Excerpt: as §1

The target in the next assay is p38b MAPK (Homo sapiens, UniProt Q15759). Briefly: Kinase profiling p38b MAPK. The following applies: read-out: residual kinase activity, p38b MAPK.
Excerpt: as §1

The target of a further assay is EPH-A2 (Homo sapiens, UniProt P29317). Briefly: Kinase profiling EPH-A2. The following applies: read-out: residual kinase activity, EPH-A2.
Sequence of EPH-A2 (P29317 24-976, species assumed): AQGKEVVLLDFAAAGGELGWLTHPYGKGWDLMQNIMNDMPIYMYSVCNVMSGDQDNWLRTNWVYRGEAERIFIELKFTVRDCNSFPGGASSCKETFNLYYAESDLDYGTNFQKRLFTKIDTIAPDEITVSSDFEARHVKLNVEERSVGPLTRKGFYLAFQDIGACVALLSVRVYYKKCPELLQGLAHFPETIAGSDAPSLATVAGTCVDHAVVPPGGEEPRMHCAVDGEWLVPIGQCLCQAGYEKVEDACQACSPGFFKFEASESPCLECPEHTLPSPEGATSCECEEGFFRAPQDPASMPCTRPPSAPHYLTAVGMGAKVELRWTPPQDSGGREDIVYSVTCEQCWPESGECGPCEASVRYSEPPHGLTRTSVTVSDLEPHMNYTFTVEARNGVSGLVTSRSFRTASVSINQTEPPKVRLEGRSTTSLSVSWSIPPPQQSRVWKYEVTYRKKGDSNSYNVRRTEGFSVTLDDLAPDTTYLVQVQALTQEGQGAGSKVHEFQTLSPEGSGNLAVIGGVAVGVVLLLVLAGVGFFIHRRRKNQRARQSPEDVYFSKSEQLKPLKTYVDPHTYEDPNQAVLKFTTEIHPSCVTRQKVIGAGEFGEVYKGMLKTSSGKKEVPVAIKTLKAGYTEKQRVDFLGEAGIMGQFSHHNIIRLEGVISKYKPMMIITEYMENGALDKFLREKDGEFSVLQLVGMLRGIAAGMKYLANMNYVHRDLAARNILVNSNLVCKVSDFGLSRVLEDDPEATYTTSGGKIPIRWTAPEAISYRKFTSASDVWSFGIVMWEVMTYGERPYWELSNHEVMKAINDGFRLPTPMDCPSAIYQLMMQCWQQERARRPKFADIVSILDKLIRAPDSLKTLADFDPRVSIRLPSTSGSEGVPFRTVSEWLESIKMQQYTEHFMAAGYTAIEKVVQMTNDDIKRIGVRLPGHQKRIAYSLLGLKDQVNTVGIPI
Excerpt: as §1

The next assay deals with RIPK2 (Homo sapiens, UniProt O43353). Briefly: Kinase profiling RIPK2. The following applies: read-out: residual kinase activity, RIPK2.
Sequence of RIPK2 (O43353 whole entry, species assumed): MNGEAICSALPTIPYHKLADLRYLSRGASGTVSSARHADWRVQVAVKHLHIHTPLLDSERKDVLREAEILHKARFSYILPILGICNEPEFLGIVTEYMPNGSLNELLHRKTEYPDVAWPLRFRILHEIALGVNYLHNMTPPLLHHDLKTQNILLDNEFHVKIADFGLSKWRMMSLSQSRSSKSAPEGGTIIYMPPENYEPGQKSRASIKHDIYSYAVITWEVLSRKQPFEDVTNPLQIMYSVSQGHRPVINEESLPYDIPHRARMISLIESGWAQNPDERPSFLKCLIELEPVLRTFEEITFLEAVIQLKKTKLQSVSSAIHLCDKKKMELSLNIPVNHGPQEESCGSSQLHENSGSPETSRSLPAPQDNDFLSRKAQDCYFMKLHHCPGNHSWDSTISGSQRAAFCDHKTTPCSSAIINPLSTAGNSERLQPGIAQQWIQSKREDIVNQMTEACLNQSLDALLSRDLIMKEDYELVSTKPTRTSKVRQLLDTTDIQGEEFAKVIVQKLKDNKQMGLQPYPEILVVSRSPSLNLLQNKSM
Excerpt: as §1

Another assay deals with EF2K (Homo sapiens, UniProt O00418). Description: Kinase profiling EF2K. The settings on record: read-out: residual kinase activity, EF2K.
Excerpt: as §1

The next assay deals with PKA (Homo sapiens, UniProt P17612). Briefly: Kinase profiling PKA. The following applies: read-out: residual kinase activity, PKA.
Excerpt: as §1

The target of a further assay is MSK1 (Homo sapiens, UniProt O75582). Briefly: Kinase profiling MSK1. The settings on record: read-out: residual kinase activity, MSK1.
Excerpt: as §1

Another assay has as its target PKCa (Homo sapiens, UniProt P17252). Briefly: Kinase profiling PKCa. The following applies: read-out: residual kinase activity, PKCa.
Excerpt: as §1

For the next assay, the target named is MKK1 (Homo sapiens, UniProt Q02750). Briefly: Kinase profiling MKK1. The following applies: read-out: residual kinase activity, MKK1.
Sequence of MKK1 (Q02750 whole entry, species assumed): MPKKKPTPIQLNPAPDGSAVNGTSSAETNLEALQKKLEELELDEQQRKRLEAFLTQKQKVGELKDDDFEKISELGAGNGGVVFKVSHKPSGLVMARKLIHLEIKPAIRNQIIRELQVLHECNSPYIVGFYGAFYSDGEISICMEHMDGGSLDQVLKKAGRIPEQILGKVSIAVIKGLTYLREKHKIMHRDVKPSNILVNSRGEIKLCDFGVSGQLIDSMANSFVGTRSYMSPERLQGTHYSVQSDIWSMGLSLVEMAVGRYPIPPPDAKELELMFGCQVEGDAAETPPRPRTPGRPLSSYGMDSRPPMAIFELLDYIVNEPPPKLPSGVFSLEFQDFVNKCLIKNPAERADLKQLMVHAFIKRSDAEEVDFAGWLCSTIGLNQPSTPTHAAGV
Excerpt: as §1

In a further assay the target is p38a MAPK (Homo sapiens, UniProt Q16539). Description: Kinase profiling p38a MAPK. The settings on record: read-out: residual kinase activity, p38a MAPK.
Sequence of p38a MAPK (Q16539 whole entry): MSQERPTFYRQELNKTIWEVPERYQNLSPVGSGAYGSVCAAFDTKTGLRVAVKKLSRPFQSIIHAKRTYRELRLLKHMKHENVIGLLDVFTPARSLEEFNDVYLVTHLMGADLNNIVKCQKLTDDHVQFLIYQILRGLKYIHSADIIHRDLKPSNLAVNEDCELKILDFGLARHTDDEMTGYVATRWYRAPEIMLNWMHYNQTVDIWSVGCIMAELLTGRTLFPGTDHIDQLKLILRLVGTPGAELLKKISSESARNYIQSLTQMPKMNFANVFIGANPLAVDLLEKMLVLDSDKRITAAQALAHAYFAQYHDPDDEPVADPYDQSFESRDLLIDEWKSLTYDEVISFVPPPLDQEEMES
Excerpt: as §1

A further assay concerns the target BTK (Homo sapiens, UniProt Q06187). Briefly: Kinase profiling BTK. The settings on record: read-out: residual kinase activity, BTK.
Excerpt: as §1

The next assay has as its target Lck (Homo sapiens, UniProt P06239). Briefly: Kinase profiling Lck. The settings on record: read-out: residual kinase activity, Lck.
Excerpt: as §1

The target of the next assay is PIM1 (Homo sapiens, UniProt P11309). Briefly: Kinase profiling PIM1. The settings on record: read-out: residual kinase activity, PIM1.
Sequence of PIM1 (P11309 whole entry, species assumed): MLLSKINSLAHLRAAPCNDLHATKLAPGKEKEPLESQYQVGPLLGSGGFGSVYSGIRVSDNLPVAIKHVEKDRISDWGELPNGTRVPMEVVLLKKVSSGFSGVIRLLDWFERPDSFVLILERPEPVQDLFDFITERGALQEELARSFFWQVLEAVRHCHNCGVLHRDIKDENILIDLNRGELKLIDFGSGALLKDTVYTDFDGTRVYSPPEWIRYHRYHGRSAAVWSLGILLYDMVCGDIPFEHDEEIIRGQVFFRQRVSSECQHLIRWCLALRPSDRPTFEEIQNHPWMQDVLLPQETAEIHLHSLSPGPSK
Excerpt: as §1

The next assay concerns the target T2, TBK1 (Homo sapiens, UniProt Q9UHD2).
T2 sequence (Q9UHD2 1-729): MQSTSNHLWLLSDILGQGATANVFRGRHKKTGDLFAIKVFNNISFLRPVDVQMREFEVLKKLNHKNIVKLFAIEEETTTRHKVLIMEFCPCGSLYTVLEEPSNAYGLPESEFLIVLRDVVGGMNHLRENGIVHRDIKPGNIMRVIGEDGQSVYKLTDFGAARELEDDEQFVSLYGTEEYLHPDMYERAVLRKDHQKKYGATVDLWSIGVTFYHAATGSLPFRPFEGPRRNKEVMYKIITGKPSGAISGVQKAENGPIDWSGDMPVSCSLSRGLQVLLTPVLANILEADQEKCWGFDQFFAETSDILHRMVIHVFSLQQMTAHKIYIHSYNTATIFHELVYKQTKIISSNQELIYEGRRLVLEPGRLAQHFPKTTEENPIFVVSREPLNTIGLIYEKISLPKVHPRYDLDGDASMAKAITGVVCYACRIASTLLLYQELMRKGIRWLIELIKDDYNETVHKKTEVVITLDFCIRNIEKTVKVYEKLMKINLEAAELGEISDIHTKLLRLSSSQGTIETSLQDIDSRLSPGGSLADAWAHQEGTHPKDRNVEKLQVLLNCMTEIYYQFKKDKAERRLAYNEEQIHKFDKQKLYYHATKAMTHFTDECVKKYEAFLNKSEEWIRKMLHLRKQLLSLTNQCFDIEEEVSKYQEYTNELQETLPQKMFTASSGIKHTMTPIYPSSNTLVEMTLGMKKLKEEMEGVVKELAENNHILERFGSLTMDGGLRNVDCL
Briefly: Kinase profiling TBK1. The settings on record: read-out: residual kinase activity, TBK1.
Excerpt: as §1

A further assay deals with PKBa (Homo sapiens, UniProt P31749). Briefly: Kinase profiling PKBa. The settings on record: read-out: residual kinase activity, PKBa.
Excerpt: as §1

The mark [1] stands for this setting: 100 micromolar inhibitor concentration, 100 is no change.

Sequence of PAK4 (O96013 whole entry, species assumed): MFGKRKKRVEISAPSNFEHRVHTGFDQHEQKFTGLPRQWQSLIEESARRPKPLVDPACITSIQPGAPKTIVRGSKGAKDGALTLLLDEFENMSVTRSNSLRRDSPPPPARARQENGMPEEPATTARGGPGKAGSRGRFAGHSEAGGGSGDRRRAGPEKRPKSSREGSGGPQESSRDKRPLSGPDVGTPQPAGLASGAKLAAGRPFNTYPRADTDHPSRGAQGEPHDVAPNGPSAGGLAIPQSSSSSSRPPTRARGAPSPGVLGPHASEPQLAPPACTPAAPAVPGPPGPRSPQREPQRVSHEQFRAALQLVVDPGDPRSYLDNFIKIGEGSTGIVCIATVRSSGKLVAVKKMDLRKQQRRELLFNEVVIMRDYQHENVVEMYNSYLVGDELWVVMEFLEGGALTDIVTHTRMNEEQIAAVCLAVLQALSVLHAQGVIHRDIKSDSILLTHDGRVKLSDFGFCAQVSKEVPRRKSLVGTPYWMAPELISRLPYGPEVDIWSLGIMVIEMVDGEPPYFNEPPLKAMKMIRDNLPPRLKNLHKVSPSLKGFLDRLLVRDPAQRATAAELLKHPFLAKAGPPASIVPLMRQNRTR
Sequence of Lck (P06239 whole entry, species assumed): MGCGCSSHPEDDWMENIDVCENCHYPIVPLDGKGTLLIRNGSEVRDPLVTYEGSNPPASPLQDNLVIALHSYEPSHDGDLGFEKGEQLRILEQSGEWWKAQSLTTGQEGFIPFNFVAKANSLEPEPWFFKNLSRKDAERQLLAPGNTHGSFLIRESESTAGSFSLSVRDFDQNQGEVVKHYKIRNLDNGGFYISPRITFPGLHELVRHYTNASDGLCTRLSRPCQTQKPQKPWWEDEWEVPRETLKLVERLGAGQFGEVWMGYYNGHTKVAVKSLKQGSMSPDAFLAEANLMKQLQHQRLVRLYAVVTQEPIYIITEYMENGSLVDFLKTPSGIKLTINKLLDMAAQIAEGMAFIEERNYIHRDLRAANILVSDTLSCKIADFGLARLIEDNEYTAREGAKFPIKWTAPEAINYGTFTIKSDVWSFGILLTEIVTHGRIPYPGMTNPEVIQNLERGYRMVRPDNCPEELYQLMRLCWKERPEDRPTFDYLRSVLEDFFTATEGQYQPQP

Consider `CC(=O)Nc1nc2cc(O)ccc2s1` [Compound 01-66, N-(5-hydroxybenzo[d]thiazol-2-yl)acetamide], for which the remaining activity at 100 µM at DYRK1A was determined as 5%; on PDK1, 69%; at SYK it was 82%; at PAK4 it was 66%; at PLK1, 103%; on JAK2, 65%. The remaining activity at 100 µM came out at 66% at RSK2; 34% on MARK3; 31% on CHK2; 44% at CAMKKb; 92% on p38b MAPK; 67% on EPH-A2. Besides, the remaining activity at 100 µM at RIPK2 is 29%; at EF2K, 76%; on PKA it was 95%; on MSK1, 62%; at PKCa, 82%; on MKK1, 31%. Besides, the remaining activity at 100 µM on p38a MAPK was found to be 84%; at BTK, 67%; at Lck, 69%; at PIM1, 12%; on TBK1 it was 60%; at PKBa, 87%.
For the molecule `CC(=O)Nc1nc2ccc(O)cc2s1` [Compound 01-71], the remaining activity at 100 µM at DYRK1A (setting [1]) was 20%; at PDK1 (setting [1]) it was 63%; at SYK (setting [1]) it was 71%; on PAK4 (setting [1]), 51%; at PLK1 (setting [1]), 97%; at JAK2 (setting [1]) it was 43%. In addition, the remaining activity at 100 µM was 48% at RSK2 (setting [1]); 46% on MARK3 (setting [1]); 17% at CHK2 (setting [1]); 57% at CAMKKb (setting [1]); 106% on p38b MAPK (setting [1]); 66% at EPH-A2 (setting [1]). The remaining activity at 100 µM at RIPK2 (setting [1]) was determined as 22%; on EF2K (setting [1]), 75%; at PKA (setting [1]) it was 70%; at MSK1 (setting [1]), 31%; at PKCa (setting [1]) it was 77%; on MKK1 (setting [1]) it was 35%. The remaining activity at 100 µM worked out at 86% at p38a MAPK (setting [1]); 69% on BTK (setting [1]); 192% at Lck (setting [1]); 19% at PIM1 (setting [1]); 43% at TBK1 (setting [1]); 87% at PKBa.
On to `CC(=O)Nc1nc2ccc(C(F)(F)F)cc2s1` [Compound 01-90], for which the remaining activity at 100 µM on DYRK1A (setting [1]) stood at 8%; at PDK1 (setting [1]), 93%; at SYK (setting [1]), 100%; at PAK4 (setting [1]) it was 67%; on PLK1 (setting [1]), 80%; on JAK2 (setting [1]) it was 73%. The remaining activity at 100 µM on RSK2 (setting [1]) is 92%; on MARK3 (setting [1]) it was 61%; on CHK2 (setting [1]), 43%; at CAMKKb (setting [1]) it was 29%; at p38b MAPK (setting [1]) it was 82%; at EPH-A2 (setting [1]), 67%. Besides, the remaining activity at 100 µM came out at 23% at RIPK2 (setting [1]); 103% at EF2K (setting [1]); 87% on PKA (setting [1]); 87% at MSK1 (setting [1]); 101% at PKCa (setting [1]); 80% at MKK1 (setting [1]). Besides, the remaining activity at 100 µM was determined as 106% on p38a MAPK (setting [1]); 73% on BTK (setting [1]); 53% at Lck (setting [1]); 71% on PIM1 (setting [1]); 83% on TBK1 (setting [1]); 104% on PKBa.
